Square brackets hold non-standard residues; d marks the D form. Peptide text beside a SMILES is read from it.

Data set [1] deals with P. aeruginosa (ATCC 27883). Also on record: MIC P. aeruginosa: unit not given beside the values. The following applies: supplementary csv, unit not given.
The subject of data set [2] is K. pneumoniae (ATCC BAA-1705). As to conditions: supplementary csv, unit not given.
The test system of another data set is MRSA (ATCC BAA-1556). Also on record: MIC MRSA: unit not given beside the values. The following applies: supplementary csv, unit not given.
For a further data set, the system named is E. coli (ATCC 25922). Also noted: MIC E. coli: unit not given beside the values. As to conditions: supplementary csv, unit not given.
The subject of data set [3] is human red blood cells (hRBCs). As to conditions: red cells of human, 2 h.
Protocol: The hemolytic activity of all the cyclic peptides was determined using human red blood cells (hRBC) purchased from BioIVT, USA. […] Peptide-induced hemolysis was tested in triplicate by mixing 75 μL of the peptide solution in PBS (two-fold serial dilution) with 75 μL of a 4% (v/v) hRBC suspension in phosphate-buffered saline. The plates were incubated for 2 h at 37 °C without agitation and centrifuged at 1000g for 10 min. Aliquots (100 μL) of the supernatant were transferred to 96-well plates, where hemoglobin release was measured spectrophotometrically at 567 nm. Percent hemolysis was calculated by the following formula: [drawing 1] where A represents the absorbance of the peptide sample at 567 nm and A0 and At represent zero percent and 100% hemolysis determined in phosphate-buffered saline and 1% Triton X-100, respectively.

Regarding `N=C(N)NCCC[C@H]1NC(=O)[C@H](Cc2c[nH]c3ccccc23)NC(=O)[C@H](Cc2c[nH]c3ccccc23)NC(=O)[C@H](Cc2c[nH]c3ccccc23)NC(=O)[C@H](Cc2c[nH]c3ccccc23)NC(=O)[C@H](Cc2c[nH]c3ccccc23)NC(=O)[C@H](Cc2c[nH]c3ccccc23)NC(=O)[C@H](Cc2c[nH]c3ccccc23)NC(=O)[C@@H](CCCNC(=N)N)NC(=O)[C@@H](CCCNC(=N)N)NC1=O` [3f, [dR3W7]] (cyclo([dR][dR][dR]WWWWWWW)), in data set [1], the “MIC P. aeruginosa” value is recorded as 256. In addition, the “MIC K. pneumoniae” value in data set [2] was found to be 256. The “MIC MRSA” value in the data set on MRSA (ATCC BAA-1556) was 64. Also, the “MIC E. coli” value in the data set on E. coli (ATCC 25922) was 256.
Consider `N=C(N)NCCC[C@@H]1NC(=O)[C@H](CCCNC(=N)N)NC(=O)[C@H](Cc2c[nH]c3ccccc23)NC(=O)[C@H](Cc2c[nH]c3ccccc23)NC(=O)[C@H](Cc2c[nH]c3ccccc23)NC(=O)[C@H](Cc2c[nH]c3ccccc23)NC1=O` [2b, [R2W4]] (cyclo(RRWWWW); ring closure inferred), for which the “MIC P. aeruginosa” value in data set [1] is recorded as 256. Moreover, the “MIC K. pneumoniae” value in data set [2] turned out to be 256. The molecule further came in with an HC50 in data set [3] of 85 µg/mL. For the same molecule, the “MIC MRSA” value against MRSA (ATCC BAA-1556) worked out at 64. Also, in the data set on E. coli (ATCC 25922), the “MIC E. coli” value came out at 256.
The molecule `N=C(N)NCCC[C@@H]1NC(=O)[C@H](CCCNC(=N)N)NC(=O)[C@H](CCCNC(=N)N)NC(=O)[C@H](CCCNC(=N)N)NC(=O)[C@H](Cc2c[nH]c3ccccc23)NC(=O)[C@H](Cc2c[nH]c3ccccc23)NC(=O)[C@H](Cc2c[nH]c3ccccc23)NC(=O)[C@H](Cc2c[nH]c3ccccc23)NC(=O)[C@H](Cc2c[nH]c3ccccc23)NC(=O)[C@H](Cc2c[nH]c3ccccc23)NC(=O)[C@H](CCCNC(=N)N)NC(=O)[C@H](CCCNC(=N)N)NC(=O)[C@H](CCCNC(=N)N)NC1=O` [7c, [R7W6]] (cyclo(RRRRRRRWWWWWW)) yielded an HC50 in data set [3] of 170 µg/mL. In the data set with MRSA (ATCC BAA-1556), the “MIC MRSA” value was determined as 32. In the data set with E. coli (ATCC 25922), the “MIC E. coli” value was 64.
Regarding `N=C(N)NCCC[C@@H]1NC(=O)[C@H](CCCNC(=N)N)NC(=O)[C@H](CCCNC(=N)N)NC(=O)[C@H](CCCNC(=N)N)NC(=O)[C@H](Cc2c[nH]c3ccccc23)NC(=O)[C@H](Cc2c[nH]c3ccccc23)NC(=O)[C@H](Cc2c[nH]c3ccccc23)NC(=O)[C@H](Cc2c[nH]c3ccccc23)NC(=O)[C@H](Cc2c[nH]c3ccccc23)NC(=O)[C@H](Cc2c[nH]c3ccccc23)NC(=O)[C@H](Cc2c[nH]c3ccccc23)NC(=O)[C@H](CCCNC(=N)N)NC(=O)[C@H](CCCNC(=N)N)NC(=O)[C@H](CCCNC(=N)N)NC1=O` [7d, [R7W7]] (cyclo(RRRRRRRWWWWWWW)), in data set [3], the HC50 came to 140 µg/mL. For the same molecule, in the data set with MRSA (ATCC BAA-1556), the “MIC MRSA” value is on record as 16. Moreover, the “MIC E. coli” value against E. coli (ATCC 25922) is listed as 32.
In data set [3], `N=C(N)NCCC[C@@H]1NC(=O)[C@H](CCCNC(=N)N)NC(=O)[C@H](Cc2c[nH]c3ccccc23)NC(=O)[C@H](Cc2c[nH]c3ccccc23)NC(=O)[C@H](Cc2c[nH]c3ccccc23)NC(=O)[C@H](Cc2c[nH]c3ccccc23)NC(=O)[C@H](Cc2c[nH]c3ccccc23)NC(=O)[C@H](CCCNC(=N)N)NC1=O` [3c, [R3W5]] (cyclo(RRRWWWWW); ring closure inferred) gave an HC50 of 80 µg/mL.
In the case of `N=C(N)NCCC[C@@H]1NC(=O)[C@H](CCCNC(=N)N)NC(=O)[C@H](CCCNC(=N)N)NC(=O)[C@H](CCCNC(=N)N)NC(=O)[C@H](Cc2c[nH]c3ccccc23)NC(=O)[C@H](Cc2c[nH]c3ccccc23)NC(=O)[C@H](Cc2c[nH]c3ccccc23)NC(=O)[C@H](Cc2c[nH]c3ccccc23)NC(=O)[C@H](Cc2c[nH]c3ccccc23)NC(=O)[C@H](CCCNC(=N)N)NC(=O)[C@H](CCCNC(=N)N)NC(=O)[C@H](CCCNC(=N)N)NC1=O` [7b, [R7W5]] (cyclo(RRRRRRRWWWWW)), the HC50 in data set [3] turned out to be 175 µg/mL. Moreover, the “MIC MRSA” value in the data set with MRSA (ATCC BAA-1556) came to 8. In the data set on E. coli (ATCC 25922), the “MIC E. coli” value amounted to 64.

Source of the values: publication PMC9743092, “Membrane-Active Cyclic Amphiphilic Peptides: Broad-Spectrum Antibacterial Activity Alone and in Combination with Antibiotics” (Journal of Medicinal Chemistry, 2022).
